Laboratory results taken from the supplement of paper PMC10331698.
± gives the standard deviation of the averaged measurements.

Experiments:
Assay in all cases: level (log10 ratio to DMSO vehicle control); higher = higher biomarker level / cell amount than vehicle control
[1] = compound: COC(=O)CCC(F)(F)C(F)(F)C(F)(F)C(F)(F)F [Methyl 2H,2H,3H,3H-perfluoroheptanoate]; settings: in DMSO
Experimental: (§1)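 BioMAP Diversity Plus panel of 12 human primary cell co-culture systems (3C, 4H, LPS, SAg, BT, BF4T, BE3C, CASM3C, HDF3CGF, KF3CT, MyoF, Mphg). Compounds were added 1 h before stimulation and left for 24 h (MyoF 48 h; BT 72 h for soluble read-outs or 6 d for IgG). Biomarkers were read by ELISA, cytotoxicity by SRB, PBMC viability and proliferation by Alamar Blue. Each well value was divided by the mean of 8 DMSO control wells on the same plate and log10 transformed; duplicate blinded samples were tested at 4 concentrations.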

[2] = compound: FC(F)C(F)(F)COCC1CO1 [((2,2,3,3-Tetrafluoropropoxy)methyl)oxirane]; settings: in DMSO
Experimental: as §1

[3] = compound: OCCC(F)(F)C(F)(F)C(F)(F)C(F)(F)C(F)(F)C(F)(F)F [6:2 Fluorotelomer alcohol]; settings: in DMSO
Experimental: as §1

[4] = compound: O=C(O)C(F)(F)C(F)(F)C(F)(F)F [Perfluorobutanoic acid]; settings: in DMSO
Experimental: as §1

[5] = compound: NCC(F)(F)C(F)(F)C(F)(F)C(F)(F)C(F)(F)C(F)(F)C(F)(F)F [1H,1H-Perfluorooctylamine]; settings: in DMSO
Experimental: as §1

[6] = compound: OCCCC(F)(F)C(F)(F)C(F)(F)C(F)(F)C(F)(F)C(F)(F)C(F)(F)F [7:3 Fluorotelomer alcohol]; settings: 6700 nM; in DMSO
Experimental: as §1

[7] = compound: O=C(O)C(F)(F)C(F)(F)C(F)(F)C(F)(F)C(F)(F)C(F)(F)C(F)(F)C(F)(F)C(F)(F)F [Perfluorodecanoic acid]; settings: in DMSO
Experimental: as §1

Test System	level (log10) ([1]; 6700 nM)	level (log10) ([1]; 20000 nM)	level (log10) ([1]; 60000 nM)	level (log10) ([2]; 6700 nM)	level (log10) ([2]; 20000 nM)	level (log10) ([2]; 60000 nM)	level (log10) ([3]; 6700 nM)	level (log10) ([3]; 20000 nM)	level (log10) ([4]; 6700 nM)	level (log10) ([4]; 20000 nM)	level (log10) ([4]; 60000 nM)	level (log10) ([5]; 6700 nM)	level (log10) ([5]; 20000 nM)	level (log10) ([5]; 60000 nM)	level (log10) [6]	level (log10) ([7]; 6700 nM)	level (log10) ([7]; 20000 nM)
3C:CD54/ICAM-1	-0.0175 ± 0.0078	-0.017	0.002 ± 0.017	-0.008 ± 0.034	-0.017 ± 0.025	-0.002 ± 0.0099	-0.006 ± 0.013	-0.0185 ± 0.044	-0.0185 ± 0.019	-0.029 ± 0.017	-0.03 ± 0.024	-0.0105 ± 0.028	-0.0125 ± 0.039	-0.015 ± 0.025	0.013	0.0105 ± 0.0021	0.015 ± 0.0071
HDF3CGF:Collagen I	0.0615 ± 0.071	0.0465 ± 0.016	0.051 ± 0.041	-0.03 ± 0.0042	-0.038 ± 0.013	0.022 ± 0.11	-0.036 ± 0.057	-0.0445 ± 0.08	-0.022 ± 0.025	-0.0105 ± 0.023	0.0175 ± 0.07	-0.047	-0.0275 ± 0.0078	0.028 ± 0.081	-0.0325 ± 0.046	-0.02 ± 0.025	-0.0095 ± 0.04
HDF3CGF:TIMP-1	-0.0015 ± 0.022	0.008 ± 0.014	0.014 ± 0.011	0.0075 ± 0.023	0.002 ± 0.011	0 ± 0.055	0.0005 ± 0.018	0.0095 ± 0.028	-0.0165 ± 0.00071	-0.0085 ± 0.033	0.0085 ± 0.013	-0.0265 ± 0.077	-0.0335 ± 0.036	-0.0405 ± 0.036	-0.012	0.016 ± 0.037	-0.0995 ± 0.03
MyoF:bFGF	-0.0125 ± 0.012	-0.008 ± 0.013	-0.0075 ± 0.019	0.012 ± 0.0057	0.0095 ± 0.0035	0.012 ± 0.011	0.0015 ± 0.005	-0.0085 ± 0.0035	0.0025 ± 0.0078	0.0095 ± 0.0078	0.0155 ± 0.0035	0.0095 ± 0.028	0 ± 0.014	0.019 ± 0.0099	-0.006 ± 0.0028	0.001 ± 0.0042	0.0055 ± 0.0035
MyoF:Collagen I	0.0055 ± 0.016	0.0035 ± 0.011	-0.004 ± 0.021	0.01 ± 0.0014	-0.005 ± 0.016	0.0155 ± 0.023	-0.0015 ± 0.0064	-0.003 ± 0.011	0.0075 ± 0.011	0.005 ± 0.042	0.0025 ± 0.012	0.012 ± 0.014	-0.016 ± 0.0042	0.013 ± 0.021	-0.0125 ± 0.011	-0.0065 ± 0.059	-0.417 ± 0.071
3C:CD62E/E-Selectin	-0.037 ± 0.0071	-0.012 ± 0.013	0.0005 ± 0.022	0.0085 ± 0.0021	0.0105 ± 0.03	0.003 ± 0.047	-0.0075 ± 0.043	-0.024 ± 0.042	-0.0155 ± 0.011	0.0075 ± 0.012	-0.0185 ± 0.0035	-0.0045 ± 0.047	0.022 ± 0.02	0.0335 ± 0.011	0.002 ± 0.014	-0.004 ± 0.0085	0.0025 ± 0.019
CASM3C:CCL2/MCP-1	-0.0075 ± 0.011	-0.003 ± 0.0071	0.004 ± 0.03	-0.001 ± 0.0028	-0.0105 ± 0.012	0.021 ± 0.075	-0.0205 ± 0.00071	-0.019 ± 0.0028	-0.0125 ± 0.0078	-0.025 ± 0.027	-0.001 ± 0.041	-0.0145 ± 0.044	-0.0245 ± 0.0092	0.009 ± 0.04	-0.0115 ± 0.012	0.006 ± 0.02	0 ± 0.0042
BE3C:tPA	-0.006 ± 0.02	-0.016 ± 0.014	0.0005 ± 0.0078	-0.006 ± 0.031	-0.015 ± 0.024	-0.0165 ± 0.00071	-0.0135 ± 0.018	-0.004 ± 0.0057	-0.025 ± 0.025	-0.025 ± 0.04	-0.037 ± 0.0099	-0.035 ± 0.016	-0.001 ± 0.034	-0.0145 ± 0.028	-0.014 ± 0.025	0.0215 ± 0.026	-0.546 ± 0.0085
CASM3C:CXCL9/MIG	-0.006 ± 0.0085	0.0035 ± 0.0035	0.015 ± 0.0028	0.002 ± 0.0085	-0.009 ± 0.02	0.014 ± 0.062	-0.011 ± 0.025	-0.0165 ± 0.0035	0.001 ± 0.0028	-0.004 ± 0.0028	0.007 ± 0.0057	-0.014 ± 0.021	-0.0245 ± 0.0021	0.006 ± 0.04	-0.0125 ± 0.0035	-0.012 ± 0.0028	-0.0055 ± 0.0064
KF3CT:CCL2/MCP-1	-0.0185 ± 0.035	-0.0515 ± 0.026	0.013 ± 0.048	-0.0245 ± 0.0021	-0.0045 ± 0.026	0.012 ± 0.013	-0.015 ± 0.038	-0.016 ± 0.041	-0.028 ± 0.0099	-0.0325 ± 0.0035	0.0205 ± 0.023	-0.0055 ± 0.043	-0.021 ± 0.013	0.0045 ± 0.0078	-0.0105 ± 0.005	-0.127 ± 0.023	-0.321 ± 0.032
CASM3C:CD87/uPAR	-0.029 ± 0.035	-0.0275 ± 0.026	-0.0185 ± 0.022	-0.029 ± 0.016	-0.0415 ± 0.005	-0.034 ± 0.014	-0.026 ± 0.013	-0.002 ± 0.0042	-0.005 ± 0.013	0.0095 ± 0.0021	-0.0085 ± 0.026	-0.044 ± 0.083	-0.0315 ± 0.043	0.025 ± 0.047	-0.036 ± 0.057	-0.0055 ± 0.005	0.016 ± 0.011
lMphg:CXCL8/IL-8	-0.0045 ± 0.018	-0.0025 ± 0.0064	-0.0005 ± 0.018	-0.0125 ± 0.066	-0.001 ± 0.017	-0.005 ± 0.011	-0.0115 ± 0.056	-0.0125 ± 0.018	-0.022 ± 0.014	-0.017 ± 0.0028	0.0165 ± 0.04	0.008 ± 0.031	0.018 ± 0.025	0.01 ± 0.013	0.01 ± 0.013	0.0415 ± 0.049	0.04 ± 0.023
KF3CT:CXCL9/MIG	-0.003 ± 0.0057	0.004 ± 0.0042	-0.02 ± 0.0028	0.007 ± 0.0085	-0.002 ± 0.0099	0.0055 ± 0.0078	0.0045 ± 0.0035	0.009	0 ± 0.0099	0.0015 ± 0.0021	0.0055 ± 0.022	0 ± 0.0057	0.0005 ± 0.018	-0.005 ± 0.0099	0.0015 ± 0.005	0.0065 ± 0.0078	-0.0185 ± 0.0035
MyoF:CD106/VCAM-1	-0.003 ± 0.0014	0.0105 ± 0.021	0.018 ± 0.011	-0.0075 ± 0.0035	-0.025 ± 0.031	-0.011 ± 0.044	0.016 ± 0.0071	0.0045 ± 0.019	-0.013 ± 0.0028	-0.007 ± 0.0014	-0.0075 ± 0.015	-0.007 ± 0.0085	-0.0295 ± 0.011	0.002 ± 0.013	-0.013 ± 0.011	-0.019 ± 0.0071	-0.084 ± 0.02
HDF3CGF:CXCL9/MIG	0.014	0.0255 ± 0.021	-0.0225 ± 0.013	-0.001 ± 0.013	0.0115 ± 0.023	-0.009 ± 0.028	-0.0015 ± 0.023	0.001 ± 0.0028	-0.005 ± 0.021	-0.014 ± 0.0028	0.012 ± 0.024	-0.006 ± 0.018	-0.0205 ± 0.011	-0.0115 ± 0.005	-0.0225 ± 0.018	-0.069 ± 0.048	-0.27 ± 0.061
BE3C:Keratin 8/18	-0.0225 ± 0.005	0.0015 ± 0.015	-0.0165 ± 0.018	-0.004 ± 0.0071	-0.019 ± 0.031	-0.0045 ± 0.0021	-0.0095 ± 0.0064	-0.0115 ± 0.00071	-0.005 ± 0.017	0.003 ± 0.0071	-0.0195 ± 0.016	-0.009 ± 0.0071	-0.024 ± 0.0099	-0.0005 ± 0.0078	0.0155 ± 0.032	0.0035 ± 0.029	-0.337 ± 0.0035
MyoF:CXCL8/IL-8	-0.0085 ± 0.00071	-0.001 ± 0.0071	0.0155 ± 0.039	-0.0175 ± 0.005	-0.0145 ± 0.018	0.0095 ± 0.025	0.0185 ± 0.032	-0.0045 ± 0.0021	-0.03 ± 0.1	-0.0355 ± 0.073	0.025 ± 0.024	0.0025 ± 0.021	-0.0095 ± 0.0035	-0.002 ± 0.023	0.017 ± 0.052	0.0205 ± 0.037	0.0085 ± 0.016
